Among the data in BindingDB's records for doi:10.1016/s0960-894x(98)00562-9 (The Procter & Gamble, 1999) are Ki values, retold here.

pKi: −log10 of the molar value.

One may read the pKi as the negative decadic logarithm of the Ki, by convention in mol/L.

This assay concerns the target Plasmin (Homo sapiens). Kind of assay: Inhibitory activity of compound against Plasmin (HP).

With `CC(C)(C)[C@@H](NC(=O)OC12CC3CC(CC(C3)C1)C2)C(=O)N[C@@H](Cc1ccccc1)C(=O)NC(Cc1ccc(NC(=N)N)cc1)C(=O)C(F)(F)F` (stereo partly drawn) [((R)-2,2-Dimethyl-1-{(S)-2-phenyl-1-[3,3,3-trifluoro-1-(4-guanidino-benzyl)-2-oxo-propylcarbamoyl]-ethylcarbamoyl}-propyl)-carbamic acid adamantan-1-yl ester], the pKi is 6.92. On to `N=C(N)Nc1ccc(CC(NC(=O)[C@H](Cc2ccccc2)NC(=O)[C@@H](CCc2ccccc2)NC(=O)OC23CC4CC(CC(C4)C2)C3)C(=O)C(F)(F)F)cc1` (stereo partly drawn) [((R)-3-Phenyl-1-{(S)-2-phenyl-1-[3,3,3-trifluoro-1-(4-guanidino-benzyl)-2-oxo-propylcarbamoyl]-ethylcarbamoyl}-propyl)-carbamic acid adamantan-1-yl ester], for which the pKi was 7.40. Under `CC(C)(C)[C@@H](NC(=O)N1CCOCC1)C(=O)NCC(=O)NC(Cc1ccc(NC(=N)N)cc1)C(=O)C(F)(F)F` (stereo partly drawn) [Morpholine-4-carboxylic acid [(R)-2,2-dimethyl-1-({[3,3,3-trifluoro-1-(4-guanidino-benzyl)-2-oxo-propylcarbamoyl]-methyl}-carbamoyl)-propyl]-amide] stands 3.96. Under `CC(C)(C)OC(=O)N[C@H](Cc1ccccc1)C(=O)N[C@H](C(=O)NC(Cc1ccc(NC(=N)N)cc1)C(=O)C(F)(F)F)c1ccc2ccccc2c1` (stereo partly drawn) [[(R)-1-({(S)-Naphthalen-2-yl-[3,3,3-trifluoro-1-(4-guanidino-benzyl)-2-oxo-propylcarbamoyl]-methyl}-carbamoyl)-2-phenyl-ethyl]-carbamic acid tert-butyl ester] stands 7.22.
